IC50 data for one compound are collected here from patent publication US5650444A, “Substituted biphenyl derivatives” (American Home Products Corporation, priority 1995, dated 1997).

The structures appear in SMILES notation. pIC50: −log10 of the molar value.

The subject of the assay is PDE IV. Nature of the assay: Test Procedure No. 2: functional inhibition of PDE IV (relaxation of guinea pig tracheal rings precontracted with carbachol). The assay is classed as cell-based, guinea pig (male Hartley). Conditions: in presence of CI-930 (10 μM). As for the experimental part: The following standard test is also employed to assess the abilities of compounds to inhibit PDE IV functionally. […]
Tracheal relaxation resulting from the inhibition of PDE-IV or PDE-III was assessed by a method similar to that employed by Harris et al. (1989). […] The functional inhibition of PDE-IV or PDE-III was determined by adding a test compound to the tissue bath in cumulatively increasing concentrations and monitoring the degree of relaxation induced in the continued presence of CI-930 or rolipram (respectively). […] Percent relaxations produced by each concentration of test compound were calculated as a percentage relaxation of tension maintained in the presence of the preincubating PDE inhibitor, relative to the final resting tension determined at the end of each experiment. […]

For orientation: pIC50 means the negative decadic logarithm of the IC50, by convention in mol/L. Turning to `COC(=O)c1cccc(-c2ccc(OC)c(OC3CCCC3)c2)c1` [Example 18, 3'-Cyclopentyloxy-4'-methoxy-biphenyl-3-carboxylic acid methyl ester], the pIC50 was 6.92.
